Data published in paper PMC10607100, “Anticancer and Antiphytopathogenic Activity of Fluorinated Isatins and Their Water-Soluble Hydrazone Derivatives” (International Journal of Molecular Sciences, 2023).
Read-outs that look alike come from different tables or passages of the source.

Columns and labels:
[1] = system: Xanthomonas campestris B-610; assay: Agar-well diffusion, bactericidal activity; type: cell-based; details: Xanthomonas campestris
Summary of the method: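 Agar-well diffusion on GYCa agar (pH 7.2–7.4) seeded with bacterial suspension; 150 μL compound solution placed in 6-mm wells. Inhibition zone width measured after 36–40 h incubation.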

[2] = system: Phytophthora cactorum VKM F-985; assay: Mycelial radial growth inhibition; type: cell-based; details: Phytophthora cactorum; for inhibition of growth at 1 µM: 1 nmol/mL; for inhibition of growth at 1 µM / inhibition of growth at 5 µM / inhibition of growth at 15 µM / inhibition of growth / inhibition of growth at 40 µM: read-out: Inhibition value, I (%); for inhibition of growth at 5 µM: 5 nmol/mL; for inhibition of growth at 15 µM: 15 nmol/mL; for inhibition of growth: 27 nmol/mL; for inhibition of growth at 40 µM: 40 nmol/mL
Summary of the method: (§1)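 Compounds mixed into molten GPY agar at various concentrations; centre inoculated with a 5-mm mycelial plug from 10-day cultures and incubated at 27 °C. Colony diameter compared with untreated control until control plate was covered (usually 12 days); ≥4 replicates in two experiments.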

[3] = system: Fusarium oxysporum IBPPM 543; assay: Mycelial radial growth inhibition; type: cell-based; details: Fusarium oxysporum; for inhibition of growth at 1 µM: 1 nmol/mL; for inhibition of growth at 1 µM / inhibition of growth at 5 µM / inhibition of growth at 20 µM / inhibition of growth at 40 µM: read-out: Inhibition value, I (%); for inhibition of growth at 5 µM: 5 nmol/mL; for inhibition of growth at 20 µM: 20 nmol/mL; for inhibition of growth at 40 µM: 40 nmol/mL
Summary of the method: as §1

[4] = system: five representative phytopathogens; assay: Agar-well diffusion, bactericidal activity over the panel of phytopathogens; type: cell-based
Summary of the method: (§2)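 Bacteria spread on agar (BP medium; GYCa for X. campestris; pH 7.2–7.4) with 6-mm wells, each receiving 150 μL compound solution. Cultures grown at 28 °C; growth-inhibition zone width measured after 36–40 h.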

[5] = system: Pseudomonas fluorescens EL-2.1; assay: Agar-well diffusion, bactericidal activity; type: cell-based; details: Pseudomonas fluorescens, EL2.1, 2 mM/L
Summary of the method: as §2

[6] = system: Micrococcus luteus B-109; assay: Agar-well diffusion, bactericidal activity; type: cell-based; details: Micrococcus luteus
Summary of the method: as §2

[7] = system: Pectobacterium atrosepticum 1043; assay: Agar-well diffusion, bactericidal activity; type: cell-based; details: Pectobacterium atrosepticum, 1043, 2 mM/L
Summary of the method: as §2

[8] = system: Pectobacterium carotovorum subsp. carotovorum MI; assay: Agar-well diffusion, bactericidal activity; type: cell-based; details: Pectobacterium carotovorum, 2 mM/L
Summary of the method: as §2

[9] = 120 h, age of the fungus 5 days
[10] = 168 h, age of the fungus 7 days
[11] = 216 h, age of the fungus 9 days
[12] = IBPPM543, 72 h, age of the fungus 3 days
[13] = IBPPM543, 120 h, age of the fungus 5 days
[14] = IBPPM543, 168 h, age of the fungus 7 days
[15] = IBPPM543, 216 h, age of the fungus 9 days
[16] = Table S3, read-out: Inhibition zone width (mm), not less

O=C(C[n+]1ccccc1)NN=C1C(=O)N(Cc2c(F)c(F)c(F)c(F)c2F)c2ccc(F)cc21.[Cl-] [Compound 5d, 1-(2-(2-(5-Fluoro-2-oxo-1-((perfluorophenyl)methyl)indolin-3-ylidene)hydrazinyl)-2-oxoethyl)pyridin-1-ium chloride]
zone of inhibition at 2000 µM ([1]; B610, 2 mM/L, average of 3 experiments, read-out: width of the inhibition zone (mm), X. campestris): 4 mm
zone of inhibition at 2000 µM ([1]; B610, Table S3, 2 mM/L, read-out: Inhibition zone width (mm), not less): ≥ 4 mm
melting point: 165 to 166 °C
inhibition of growth at 1 µM ([2]; 72 h, age of the fungus 3 days): 15%
inhibition of growth at 5 µM ([2]; 72 h, age of the fungus 3 days): 20%
inhibition of growth at 15 µM ([2]; 72 h, age of the fungus 3 days): 26%
inhibition of growth ([2]; 72 h, age of the fungus 3 days): 28%
inhibition of growth at 40 µM ([2]; 72 h, age of the fungus 3 days): 35%
EC50 ([2]; 120 h, day 5, read-out: EC50, µg/mL at Day 5, P. cactorum): 24.7 µg/mL
inhibition of growth at 1 µM [2, 9]: 12%
inhibition of growth at 5 µM [2, 9]: 19%
inhibition of growth at 15 µM [2, 9]: 28%
inhibition of growth [2, 9]: 32%
inhibition of growth at 40 µM [2, 9]: 43%
inhibition of growth at 1 µM [2, 10]: 10%
inhibition of growth at 5 µM [2, 10]: 16%
inhibition of growth at 15 µM [2, 10]: 23%
inhibition of growth [2, 10]: 25%
inhibition of growth at 40 µM [2, 10]: 33%
inhibition of growth at 1 µM [2, 11]: 8%
inhibition of growth at 5 µM [2, 11]: 11%
inhibition of growth at 15 µM [2, 11]: 13%
inhibition of growth [2, 11]: 22%
inhibition of growth at 40 µM [2, 11]: 29%
inhibition of growth at 1 µM [3, 12]: 9%
inhibition of growth at 5 µM [3, 12]: 33%
inhibition of growth at 20 µM [3, 12]: 35%
inhibition of growth at 40 µM [3, 12]: 49%
EC50 ([3]; IBPPM543, 120 h, day 5, read-out: EC50, µg/mL at Day 5, F. oxysporum): 17.4 µg/mL
inhibition of growth at 1 µM [3, 13]: 10%
inhibition of growth at 5 µM [3, 13]: 24%
inhibition of growth at 20 µM [3, 13]: 37%
inhibition of growth at 40 µM [3, 13]: 54%
inhibition of growth at 1 µM [3, 14]: 10%
inhibition of growth at 5 µM [3, 14]: 23%
inhibition of growth at 20 µM [3, 14]: 32%
inhibition of growth at 40 µM [3, 14]: 41%
inhibition of growth at 1 µM [3, 15]: 0%
inhibition of growth at 5 µM [3, 15]: 16%
inhibition of growth at 20 µM [3, 15]: 18%
inhibition of growth at 40 µM [3, 15]: 36%
zone of inhibition at 2000 µM ([4]; 36 h, 2 mM solutions, dependent on the test system used, read-out: inhibition zone width (mm), range over the test systems): 2 to 4 mm
bactericidal activity ([4]; Table S2): moderate bactericidal activity
zone of inhibition at 2000 µM ([5]; average of 3 experiments, read-out: width of the inhibition zone (mm), Ps. fluorescens): 2 mm
zone of inhibition at 2000 µM [5, 16]: ≥ 2 mm
zone of inhibition at 2000 µM ([6]; B109, 2 mM/L, average of 3 experiments, read-out: width of the inhibition zone (mm), M. luteus): 3 mm
zone of inhibition at 2000 µM ([6]; B109, Table S3, 2 mM/L, read-out: Inhibition zone width (mm), not less): ≥ 3 mm
zone of inhibition at 2000 µM ([7]; average of 3 experiments, read-out: width of the inhibition zone (mm), P. atrosepticum): 4 mm
zone of inhibition at 2000 µM [7, 16]: ≥ 4 mm
zone of inhibition at 2000 µM ([8]; average of 3 experiments, read-out: width of the inhibition zone (mm), P. carotovorum subsp. carotovorum): 4 mm
zone of inhibition at 2000 µM [8, 16]: ≥ 4 mm
